Assay results as given in patent publication US11384075B2, “Quinolinone compounds” (Janssen Pharmaceutica NV, priority 2017, dated 2022).
Like-named read-outs stand apart in the source and are kept apart here.

Assays:
[1] = biological target: T1, human FGFR3 wild type enzyme (cytoplasmic domain) (Homo sapiens, UniProt P22607); assay: FGFR3 wild type mobility shift assay (enzymatic assay); assay type: biochemical; conditions: 75 μM ATP, 50 minutes at 30° C., Caliper EZ reader II
T1 construct: human FGFR3 wild type enzyme (cytoplasmic domain, from Carna Biosciences); purchased Carna Biosciences
Description: FGFR3 Wild Type Mobility Shift Assay (Enzymatic Assay)
(§1) In a final reaction volume of 25 μL, 0.04 ng/μL human FGFR3 wild type enzyme (cytoplasmic domain, from Carna Biosciences) was incubated with 75 μM ATP, 1 μM FL-peptide 30 substrate and 250 nL of testing compound (1% DMSO final) in assay buffer (100 mM HEPES pH 7.4, 10 mM MgCl2, 0.003% Brij35, 1 mM DTT). After incubation for 50 minutes at 30° C. the reaction was stopped with 10 μL of 0.5M EDTA pH 8.0, and then 25 μL of reaction mixture was transferred to reading plate and measured on Caliper EZ reader II. The substrate-product conversion rate was used as raw data for normalization and concentration-response curve (10 dose points with 4× serial dilution, starting with 10 μM) was plotted using Prism to calculate IC50 (M), pIC50 (−log IC50) and HillSlope value.

[2] = biological target: T2, human FGFR3 V555M enzyme (cytoplasmic domain carrying V555M mutation) (Homo sapiens, UniProt P22607, V555M); assay: FGFR3 V555M mobility shift assay (enzymatic assay); assay type: biochemical; conditions: 30 μM ATP, 45 minutes at 30° C., Caliper EZ reader II
T2 construct: human FGFR3 V555M enzyme (cytoplasmic domain carrying V555M mutation, from Carna Biosciences); purchased Carna Biosciences
Description: FGFR3 V555M Mobility Shift Assay (Enzymatic Assay)
as §1, with “FGFR3 V555M” for “FGFR3 wild type”, “(cytoplasmic domain carrying V555M mutation,” for “(cytoplasmic domain,”, “with 30” for “with 75”, “for 45” for “for 50”

[3] = tested on: NIH/3T3 cells transfected with the same control vector; assay: NIH/3T3 mock cell proliferation assay (counter assay, general toxicity); assay type: cell-based; conditions: 72-hr incubation, CellTiter Glo, starting with 30 μM, counter assay for general toxicity, read-out: NIH/3T3 MOCK CTG (IC50)
Description: NIH/3T3 Mock Cell Proliferation Assay
(§2) In day 1, 90 μL of cell suspension (NIH/3T3 cells transfected with the same control vector as in the above two proliferation assays) (total 30,000 cells per well in growth medium (DMEM containing 1% Glutamax, 10% FBS and 1% Pen/Strep)) was seeded in a 96-well plate and then incubated overnight at 37° C. and 5% CO2. In day 2, 10 μL of growth medium containing 10-fold stock solution of testing compound was added into cell cultures (9 dose points with 3× serial dilution, starting with 30 μM, 0.3% DMSO final). After 72-hr incubation at 37° C. and 5% CO2, in day 5 a volume of 50 μL CellTiter Glo (CTG) reagent was added into cell-containing 96-well plate and the plate was incubated at room temperature for 10 minutes before RLUs (relative light unit) were measured on a microplate reader with luminescence detection module. The RLU value was normalized to survival % and concentration-response curve was plotted using Prism to calculate IC50 (M), pIC50 (−log IC50) and HillSlope value.

[4] = biological target: T3, NIH/3T3 cells overexpressing FGFR3 WT-TACC3 fusion protein (Homo sapiens, UniProt P22607); assay: NIH/3T3 FGFR3 WT-TACC3 cell proliferation assay; assay type: cell-based; conditions: 72-hr incubation, CellTiter Glo, starting with 10 μM; read-out: NIH/3T3 FGFR3 WT-TACC3 CTG (IC50)
T3 construct: NIH/3T3 FGFR3 WT-TACC3 CTG (IC50); other: 72-hr incubation, CellTiter Glo, starting with 10 μM; fused on or other part: Q9Y6A5 (Transforming acidic coiled-coil-containing protein 3)
Description: NIH/3T3 FGFR3 WT-TACC3 Cell Proliferation Assay
as §2, with “cells overexpressing FGFR3 WT-TACC3 fusion protein)” for “cells transfected with the same control vector as in the above two proliferation assays)”, “with 4×” for “with 3×”, “with 10” for “with 30”, “μM, 0.1%” for “μM, 0.3%”

[5] = biological target: T4, NIH/3T3 cells overexpressing FGFR3 V555M-TACC3 fusion protein (Homo sapiens, UniProt P22607, V555M, cells depend on it); assay: NIH/3T3 FGFR3 V555M-TACC3 cell proliferation assay; assay type: cell-based; conditions: 72-hr incubation, CellTiter Glo, starting with 10 μM; read-out: NIH/3T3 FGFR3 V555M-TACC3 CTG (IC50)
T4 construct: NIH/3T3 FGFR3 V555M-TACC3 CTG (IC50); other: 72-hr incubation, CellTiter Glo, starting with 10 μM; fused on or other part: Q9Y6A5 (Transforming acidic coiled-coil-containing protein 3)
Description: NIH/3T3 FGFR3 V555M-TACC3 Cell Proliferation Assay
as §2, with “cells overexpressing FGFR3 V555M-TACC3 fusion protein)” for “cells transfected with the same control vector as in the above two proliferation assays)”, “with 4×” for “with 3×”, “with 10” for “with 30”, “μM, 0.1%” for “μM, 0.3%”

T1 sequence (P22607 397-806 limits assumed): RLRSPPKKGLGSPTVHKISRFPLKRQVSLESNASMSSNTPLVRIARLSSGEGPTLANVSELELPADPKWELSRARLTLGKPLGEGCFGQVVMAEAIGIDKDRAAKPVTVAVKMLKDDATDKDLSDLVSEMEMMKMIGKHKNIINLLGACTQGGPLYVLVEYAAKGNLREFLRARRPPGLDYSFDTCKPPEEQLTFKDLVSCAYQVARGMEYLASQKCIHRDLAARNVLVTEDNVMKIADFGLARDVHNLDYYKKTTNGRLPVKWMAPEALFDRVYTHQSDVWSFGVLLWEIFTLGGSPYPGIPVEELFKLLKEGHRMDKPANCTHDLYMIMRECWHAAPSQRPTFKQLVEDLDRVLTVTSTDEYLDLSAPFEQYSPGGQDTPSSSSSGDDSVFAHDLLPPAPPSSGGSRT
T3 sequence (P22607 whole entry, change not shown, the tested form may be a part): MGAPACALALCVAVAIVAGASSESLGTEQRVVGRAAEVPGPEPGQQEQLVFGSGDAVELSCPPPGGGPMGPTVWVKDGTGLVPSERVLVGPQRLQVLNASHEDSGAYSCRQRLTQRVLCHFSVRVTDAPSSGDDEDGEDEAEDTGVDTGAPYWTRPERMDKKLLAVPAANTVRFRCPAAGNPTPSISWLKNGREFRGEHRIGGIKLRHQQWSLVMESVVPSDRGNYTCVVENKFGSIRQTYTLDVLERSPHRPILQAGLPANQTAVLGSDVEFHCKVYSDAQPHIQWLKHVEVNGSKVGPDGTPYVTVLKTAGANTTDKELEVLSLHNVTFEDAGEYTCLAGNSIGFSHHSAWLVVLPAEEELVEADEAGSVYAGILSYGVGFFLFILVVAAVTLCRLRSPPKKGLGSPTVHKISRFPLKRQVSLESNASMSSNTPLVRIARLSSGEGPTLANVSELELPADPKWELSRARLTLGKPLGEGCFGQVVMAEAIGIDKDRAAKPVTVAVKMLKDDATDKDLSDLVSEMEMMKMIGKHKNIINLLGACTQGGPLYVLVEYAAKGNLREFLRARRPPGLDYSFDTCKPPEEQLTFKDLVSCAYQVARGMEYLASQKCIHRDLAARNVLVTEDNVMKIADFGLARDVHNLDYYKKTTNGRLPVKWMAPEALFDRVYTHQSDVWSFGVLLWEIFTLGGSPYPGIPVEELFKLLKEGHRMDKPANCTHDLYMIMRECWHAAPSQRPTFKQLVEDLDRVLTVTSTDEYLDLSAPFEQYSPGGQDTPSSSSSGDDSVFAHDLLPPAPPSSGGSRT
T2 sequence (P22607 397-806 V555M limits assumed): as the sequence (P22607 397-806 limits assumed) above, with V159M counted along it
T4 sequence (P22607 whole entry V555M, the tested form may be a part): as the sequence (P22607 whole entry, change not shown, the tested form may be a part) above, with V555M counted along it

Row | IC50 [1] | IC50 [2] | GI50 [4] | GI50 [5] | Compound | IC50 ([3]; Mus musculus, NIH3T3, 72 h) | IC50 [3]
1 | 0.244 nM | 0.147 nM | 9.46 nM | 3.98 nM | CC(Nc1c(-c2nc3ccc(N4CC5CCC(C4)O5)cc3[nH]2)c(=O)[nH]c2ccccc12)c1ncccn1 (single isomer, unassigned) [Compound 44a, 3-(6-(8-oxa-3-azabicyclo[3.2.1]octan-3-yl)-1H-benzo[d]imidazol-2-yl)-4-(((S*)-1-(pyrimidin-2-yl)ethyl)amino)quinolin-2(1H)-one] | 3040 nM | 
2 | 1.05 nM | 0.449 nM | 3.46 nM | 4.34 nM | CC(Nc1c(-c2nc3ccc(N4CCN(C)CC4)c(F)c3[nH]2)c(=O)[nH]c2ccccc12)c1ccccn1 (single isomer, unassigned) [Compound 13b, (S*)-3-(7-fluoro-6-(4-methylpiperazin-1-yl)-1H-benzo[d]imidazol-2-yl)-4-((1-(pyridin-2-yl)ethyl)amino)quinolin-2(1H)-one] | 1740 nM | 
3 | 0.826 nM | 0.49 nM | 23.5 nM | 17.1 nM | C[C@H](Nc1c(-c2nc3ccc(C(=O)N4CCOCC4)cc3[nH]2)c(=O)[nH]c2ccccc12)c1ccccn1 [Compound 20, (S)-3-(6-(morpholine-4-carbonyl)-1H-benzo[d]imidazol-2-yl)-4-((1-(pyridin-2-yl)-ethyl)amino)quinolin-2(1H)-one] | 952 nM | 
4 | 1.17 nM | 0.742 nM | 19.9 nM | 15.9 nM | Cc1cc(N2CCOCC2)cc2[nH]c(-c3c(N[C@@H](C)c4ncccn4)c4ccccc4[nH]c3=O)nc12 [Compound 46, (S)-3-(4-methyl-6-morpholino-1H-benzo[d]imidazol-2-yl)-4-((1-(pyrimidin-2-yl)ethyl)-amino)quinolin-2(1H)-one] | 3910 nM | 
5 | 0.67 nM | 0.27 nM | 16 nM | 12.3 nM | Cc1c(N2CCOCC2)ccc2nc(-c3c(N[C@@H](C)c4ncccn4)c4ccccc4[nH]c3=O)[nH]c12 [Compound 47, (S)-3-(7-methyl-6-morpholino-1H-benzo[d]imidazol-2-yl)-4-((1-(pyrimidin-2-yl)-ethyl)amino)quinolin-2(1H)-one] | 547 nM | 
6 | 0.174 nM | 0.136 nM | 6.58 nM | 6.47 nM | CC(Nc1c(-c2nc3ccc(N4C[C@H](C)O[C@@H](C)C4)cc3[nH]2)c(=O)[nH]c2ccccc12)c1ncccn1 (single isomer, unassigned) [Compound 39a, 3-(6-((2S,6S)-2,6-dimethylmorpholino)-1H-benzo[d]imidazol-2-yl)-4-(((S*)-1-(pyrimidin-2-yl)ethyl)amino)quinolin-2(1H)-one] | 1600 nM | 
7 | 0.591 nM | 0.245 nM | 8.34 nM | 13.4 nM | CC(Nc1c(-c2nc3ccc(N4CCOCC4)c(F)c3[nH]2)c(=O)[nH]c2ccccc12)c1ncccn1 (single isomer, unassigned) [Compound 23a, (S*)-3-(7-fluoro-6-morpholino-1H-benzo[d]imidazol-2-yl)-4-((1-(pyrimidin-2-yl)-ethyl)amino)quinolin-2(1H)-one] | 15300 nM | 
8 | 0.313 nM | 0.168 nM | 3.15 nM | 1.85 nM | C[C@@H]1CN(c2ccc3nc(-c4c(N[C@@H](C)c5ncccn5)c5ccccc5[nH]c4=O)[nH]c3c2)CCO1 (single isomer, unassigned) [Compound 40a] | 2480 nM | 
9 | 0.445 nM | 0.255 nM | 6.93 nM | 5.8 nM | CC(Nc1c(-c2nc3cc(F)c(N4CCOCC4)cc3[nH]2)c(=O)[nH]c2ccccc12)c1ncccn1 (single isomer, unassigned) [Compound 27a, (S*)-3-(5-fluoro-6-morpholino-1H-benzo[d]imidazol-2-yl)-4-((1-(pyrimidin-2-yl)-ethyl)amino)quinolin-2(1H)-one] | 3880 nM | 
10 | 0.478 nM | 0.326 nM | 11.7 nM | 4.18 nM | CC(Nc1c(-c2nc3ccc(N4C[C@@H](C)O[C@H](C)C4)cc3[nH]2)c(=O)[nH]c2ccccc12)c1ncccn1 (single isomer, unassigned) [Compound 37a, 3-(6-((2R,6R)-2,6-dimethylmorpholino)-1H-benzo[d]imidazol-2-yl)-4-(((S*)-1-(pyrimidin-2-yl)ethyl)amino)quinolin-2(1H)-one] | 898 nM | 
11 | 0.552 nM | 0.302 nM | 5.49 nM | 8.35 nM | C[C@H](Nc1c(-c2nc3ccc(N4CCCCC4)cc3[nH]2)c(=O)[nH]c2ccccc12)c1ncccn1 (single isomer, unassigned) [Compound 28a, (S*)-3-(6-(piperidin-1l-yl)-1H-benzo[d]imidazol-2-yl)-4-((1-(pyrimidin-2-yl)ethyl)-amino)quinolin-2(1H)-one] | 7220 nM | 
12 | 2.91 nM | 1.21 nM | 389 nM | 451 nM | COC(=O)C1CN(c2ccc3nc(-c4c(N[C@@H](C)c5ccccn5)c5ccccc5[nH]c4=O)[nH]c3c2)CCO1 (single isomer, unassigned) [Compound 62, (R*)-methyl 4-(2-(2-oxo-4-(((S)-1-(pyridin-2-yl)ethyl)amino)-1,2-dihydroquinolin-3-yl)-1H-benzo[d]imidazol-6-yl)morpholine-2-carboxylate] |  | 12700 nM
